Laboratory results from US10131664B2 (Celgene Quanticel Research, Inc., priority 2013, dated 2018).
Structures can show the parent of a compound that is named as a salt. Where two headings read alike, the source gives them in different places.

Experiments:
[1] = target: full-length human LSD1 (Homo sapiens (Human), UniProt O60341); assay: In vitro enzyme inhibition assay LSD-1 (TR-FRET); assay type: biochemical
Method: This assay determines the ability of a test compound to inhibit LSD1 demethylase activity.
The enzymatic assay of LSD1 activity is based on Time Resolved-Fluorescence Resonance Energy Transfer (TR-FRET) detection.
The ability of the compounds disclosed herein to inhibit LSD1 activity was quantified and the respective IC50 value was determined. Table 5 provides the IC50 values of various substituted heterocyclic compounds disclosed herein.

[2] = tested on: THP-1 (AML) cells; assay: LSD1 CD11b cellular assay (flow cytometry); assay type: cell-based; settings: Homo sapiens, 96 h; CD11b expression in THP-1 (AML) cells, flow cytometry, 4 days incubation; read-out: Cellular IC50
Method: To analyze LSD1 inhibitor efficacy in cells, a CD11b flow cytometry assay was performed. LSD1 inhibition induces CD11b expression in THP-1 (AML) cells which can be measured by flow cytometry. […] LSD1 test compounds were serially diluted in DMSO. The dilutions were added to each well accordingly to a final concentration of 0.2% DMSO. The cells were incubated at 37° C. in 5% CO2 for 4 days. 250 μL of each well was transferred to a well in a 96 well round bottom plate. The plate was centrifuged at 1200 rpm at 4 degrees Celsius in a Beckman Coulter Alegra 6KR centrifuge for 5 min. The media was removed leaving the cells at the bottom of the wells. The cells were washed in 100 μL cold HBSS (Hank's Balanced Salt Solution) plus 2% BSA (Bovine Serum Albumin) solution and centrifuged at 1200 rpm at 4° C. for 5 min. The wash was removed. […] The cells were centrifuged and washed two times in 100 μl HBSS plus 2% BSA. After the final spin the cells were resuspended in 100 μL HBSS plus 2% BSA containing 1 μg/mL DAPI (4′,6-diamidino-2-phenylindole). The cells were then analyzed by flow cytometry in a BD FACSAria machine. Cells were analyzed for CD11b expression. The percent of CD11b expressing cells for each inhibitor concentration was used to determine an IC50 curve for each compound analyzed.

[3] = TR-FRET, 0.1 nM LSD1, 50 nM H3K4me1-biotin peptide, 2 μM FAD, pH7.3, read-out: LSD1 IC50

Row | Compound | IC50 [1, 3] | IC50 [2] | IC50 [1]
1 | N#Cc1ccc(-c2nc(NCC3CNCCO3)ncc2-c2ccc(F)cc2)cc1 (racemic) [Example 34, (±)-4-[5-(4-fluorophenyl)-2-[(morpholin-2-ylmethyl)amino]pyrimidin-4-yl]benzonitrile] | 100 to 1000 nM |  | 
2 | Cc1ccc(-c2cnc(NCC3(F)CCNC3)nc2-c2ccc(C#N)cc2)cc1 (single isomer, unassigned; (+)) [Example 28, (+)-4-(2-{[(3-fluoropyrrolidin-3-yl)methyl]amino}-5-(4-methylphenyl)pyrimidin-4-yl)benzonitrile] |  | 100 to 1000 nM | 
3 | Cc1ccc(-c2cnc(NC3CCCNC3)nc2-c2ccc(C#N)cc2)cc1 (single isomer, unassigned; (+)) [Example 29, (+)-4-[5-(4-methylphenyl)-2-[(piperidin-3-yl)amino]pyrimidin-4-yl]benzonitrile] |  | 100 to 1000 nM | 
4 | COc1ccc(-c2nc3ccn(CC4CCNC4)c3cc2-c2ccc(C#N)c(F)c2)cc1F (stereo in doubt) [Example 55, 4-{1-[((3R)pyrrolidin-3-yl)methyl]-5-(3-fluoro-4-methoxyphenyl)pyrrolo[3,2-b]pyridin-6-yl}-2-fluorobenzenecarbonitrile, HCl salt] | < 100 nM | < 100 nM | 
5 | Cc1ccc(-c2nc3ccn(C[C@@H]4CCNC4)c3cc2-c2ccc(C#N)cc2)cc1 [Example 1, 4-[5-(4-methylphenyl)-1-[[(3R)-pyrrolidin-3-yl]methyl]pyrrolo[3,2-b]pyridin-6-yl]benzonitrile] | < 100 nM | < 100 nM | 
6 | N#Cc1ccc(-c2cc3c(ccn3C[C@@H]3CCNC3)nc2Cl)cc1 [Example 2] |  | 1000 to 10000 nM | 
7 | Cc1ccc(-c2nc3ccn(C[C@H]4CCNC4)c3cc2-c2ccc(C#N)cc2)cc1 [Example 3, 4-[5-(4-methylphenyl)-1-[[(3S)-pyrrolidin-3-yl]methyl]pyrrolo[3,2-b]pyridin-6-yl]benzonitrile] | < 100 nM | < 100 nM | 
8 | N#Cc1ccc(-c2cc3c(ccn3C[C@H]3CCNC3)nc2Cl)cc1 [Example 4, 4-[5-chloro-1-[[(3S)-pyrrolidin-3-yl]methyl]pyrrolo[3,2-b]pyridin-6-yl]benzonitrile] | 100 to 1000 nM | 1000 to 10000 nM | 
9 | N#Cc1ccc(-c2cc3c(ccn3C[C@H]3CCNC3)nc2-c2ccc(F)cc2)cc1 [Example 5, 4-[5-(4-fluorophenyl)-1-[[(3S)-pyrrolidin-3-yl]methyl]pyrrolo[3,2-b]pyridin-6-yl]benzonitrile] | < 100 nM | 1000 to 10000 nM | 
10 | N#Cc1ccc(-c2cc3c(ccn3C[C@@H]3CCNC3)nc2N2CCOCC2)cc1 [Example 6, 4-[5-morpholin-4-yl-1-[[(3R)-pyrrolidin-3-yl]methyl]pyrrolo[3,2-b]pyridin-6-yl]benzonitrile] | 100 to 1000 nM | 1000 to 10000 nM | 
11 | N#Cc1ccc(-c2cc3c(ccn3C[C@H]3CCNC3)nc2N2CCOCC2)cc1 [Example 7, 4-[5-morpholin-4-yl-1-[[(3S)-pyrrolidin-3-yl]methyl]pyrrolo[3,2-b]pyridin-6-yl]benzonitrile] | < 100 nM | 100 to 1000 nM | 
12 | N#Cc1ccc(-c2cc3c(ccn3CC3(F)CCNC3)nc2N2CCOCC2)cc1 (centres unmarked) [Example 8, 4-[1-[(3-fluoropyrrolidin-3-yl)methyl]-5-morpholin-4-ylpyrrolo[3,2-b]pyridin-6-yl]benzonitrile] | 100 to 1000 nM |  | 
13 | Cc1ccc(-c2nc3ccn(CC4(F)CCNC4)c3cc2-c2ccc(C#N)cc2)cc1 (centres unmarked) [Example 9, 4-[1-[(3-fluoropyrrolidin-3-yl)methyl]-5-(4-methylphenyl)pyrrolo[3,2-b]pyridin-6-yl]benzonitrile] |  | 100 to 1000 nM | < 100 nM
14 | N#Cc1ccc(-c2nc(NC[C@H]3CCNC3)ncc2Cl)cc1 [Example 17, 4-(5-chloro-2-{[(3S)-pyrrolidin-3-ylmethyl]amino}pyrimidin-4-yl)benzonitrile] | 100 to 1000 nM |  | 
15 | N#Cc1ccc(-c2nc(N3CC[C@@H]4CNC[C@@H]4CC3)ncc2-c2ccc(F)cc2)cc1 [Example 24, 4-{2-[(3aR,8aS)-decahydropyrrolo[3,4-d]azepin-6-yl]-5-(4-fluorophenyl)pyrimidin-4-yl}benzonitrile] | < 100 nM |  | 
16 | Cc1ccc(-c2cnc(NC3CCNCC3)nc2-c2ccc(C#N)cc2)cc1 [Example 30, 4-[5-(4-methylphenyl)-2-[(piperidin-4-yl)amino]pyrimidin-4-yl]benzonitrile] | < 100 nM |  | 
17 | Cc1ccc(-c2cnc(NCC3CCNCC3)nc2-c2ccc(C#N)cc2)cc1 [Example 32, 4-[5-(4-methylphenyl)-2-[(piperidin-4-ylmethyl)amino]pyrimidin-4-yl]benzonitrile] | < 100 nM |  | 

Row | Compound | IC50 [1, 3] | IC50 [2] | IC50 [1]
18 | Cc1ccc(-c2cnc(N3CCC4(CCNC4)C3)nc2-c2ccc(C#N)cc2)cc1 (centres unmarked) [Example 35, 4-(2-{2,7-diazaspiro[4.4]nonan-2-yl}-5-(4-methylphenyl)pyrimidin-4-yl)benzonitrile] | < 100 nM |  | 
19 | Cc1ccc(-c2cnc(N3CCC4(CCNCC4)C3)nc2-c2ccc(C#N)cc2)cc1 [Example 36, 4-(2-{2,8-diazaspiro[4.5]decan-2-yl}-5-(4-methylphenyl)pyrimidin-4-yl)benzonitrile] | < 100 nM |  | 
20 | Cc1ccc(-c2cnc(N3CCC4(CCNC4)CC3)nc2-c2ccc(C#N)cc2)cc1 [Example 39, 4-(2-{2,8-diazaspiro[4.5]decan-8-yl}-5-(4-methylphenyl)pyrimidin-4-yl)benzonitrile] | < 100 nM |  | 
21 | Cc1ccc(-c2cnc(N3CCC4(CCCN4)CC3)nc2-c2ccc(C#N)cc2)cc1 [Example 40, 4-(2-{1,8-diazaspiro[4.5]decan-8-yl}-5-(4-methylphenyl)pyrimidin-4-yl)benzonitrile] | < 100 nM |  | 
22 | Cc1ccc(-c2cnc(N3CC4CNCC(C3)O4)nc2-c2ccc(C#N)cc2)cc1 [Example 41, 4-[5-(4-methylphenyl)-2-{9-oxa-3,7-diazabicyclo[3.3.1]nonan-3-yl}pyrimidin-4-yl]benzonitrile] | 100 to 1000 nM |  | 
23 | N#Cc1ccc(-c2nc(N3CC4CNCC(C3)O4)ncc2-c2ccc(F)cc2)cc1 [Example 42, 4-[5-(4-fluorophenyl)-2-{9-oxa-3,7-diazabicyclo[3.3.1]nonan-3-yl}pyrimidin-4-yl]benzonitrile] | 100 to 1000 nM |  | 
24 | Cc1ccc(-c2nc3cnn(C4CCNCC4)c3cc2-c2ccc(C#N)cc2)cc1 [Example 48, 4-[5-(4-methylphenyl)-1-piperidin-4-ylpyrazolo[4,3-b]pyridin-6-yl]benzonitrile] |  | > 10000 nM | 
25 | COc1ncc(-c2cnc(N3CCC(N)CC3)nc2-c2ccc(C#N)cc2)cn1 [Example 74, 4-[2-(4-aminopiperidin-1-yl)-5-(2-methoxypyrimidin-5-yl)pyrimidin-4-yl]benzonitrile] | < 100 nM |  | 
26 | Cc1nc2cc(-c3cnc(N4CCC(N)CC4)nc3-c3ccc(C#N)cc3)ccc2n1C [Example 75, 4-[2-(4-aminopiperidin-1-yl)-5-(1,2-dimethylbenzimidazol-5-yl)pyrimidin-4-yl]benzonitrile] | < 100 nM |  | 
27 | N#Cc1ccc(-c2nc(N3CCC(N)CC3)ncc2-c2ccn3ncnc3c2)cc1 [Example 81, 4-[2-(4-aminopiperidin-1-yl)-5-([1,2,4]triazdo[1,5-a]pyridin-7-yl)pyrimidin-4-yl]benzonitrile] | 100 to 1000 nM |  | 
28 | Cn1cc2nc(-c3cnc(N4CCC(N)CC4)nc3-c3ccc(C#N)cc3)ncc2n1 [Example 86] | 100 to 1000 nM |  | 
29 | Cn1ncc2nc(-c3cnc(N4CCC(N)CC4)nc3-c3ccc(C#N)cc3)ncc21 [Example 88, 4-[2-(4-aminopiperidin-1-yl)-5-(1-methylpyrazolo[4,3-d]pyrimidin-5-yl)pyrimidin-4-yl]benzonitrile] | 100 to 1000 nM |  | 
30 | Cc1ncc(-c2cnc(N3CCC(N)CC3)nc2-c2ccc(C#N)cc2)cn1 [Example 90, 4-[2-(4-aminopiperidin-1-yl)-5-(2-methylpyrimidin-5-yl)pyrimidin-4-yl]benzonitrile] | < 100 nM |  | 
31 | Cc1nn(C)cc1-c1cnc(N2CCC3CNCC3CC2)nc1-c1ccc(C#N)cc1 (centres unmarked) [Example 118, 4-[2-(2,3,3a,4,5,7,8,8a-octahydro-1H-pyrrolo[3,4-d]azepin-6-yl)-5-(1,3-dimethylpyrazol-4-yl)pyrimidin-4-yl]benzonitrile] | < 100 nM |  | 
32 | N#Cc1ccc(-c2nc(N3CCC4(CCNC4)CC3)ncc2-c2cnn(CC(F)(F)F)c2)cc1 [Example 121, 4-[2-(2,8-diazaspiro[4.5]decan-8-yl)-5-[1-(2,2,2-trifluoroethyl)pyrazol-4-yl]pyrimidin-4-yl]benzonitrile] | < 100 nM |  | 
33 | N#Cc1ccc(-c2nc(N3CCC(N)CC3)ncc2-c2ccc3ncnn3c2)cc1 [Example 127, 4-[2-(4-aminopiperidin-1-yl)-5-([1,2,4]triazolo[1,5-a]pyridin-6-yl)pyrimidin-4-yl]benzonitrile] | 100 to 1000 nM |  | 
